The record followed here is patent publication US10844013B2, “Phenyl amino piperidine mTORC inhibitors and uses thereof” (Navitor Pharmaceuticals, Inc., priority 2016, dated 2020).

The subject of experiment [1] is pS6K1 (p-p70 S6 Kinase (Thr389)) in MCF-7 cells. As to the kind of experiment: AlphaLISA Ultra pS6K1 assay. It counts as cell-based. The settings on record: Homo sapiens, MCF7, 2 h, 2 hours compound incubation. As to the method:
Example 155: AlphaLISA Ultra pS6K1 assay
(§1) Assay Protocol: • 1. Seed MCF-7 cells in Corning 3701 plate and incubate for 20˜24 hour. 12,000˜16,000 cells will be seeded in 36 μL medium per well. • 2. Change the culture medium with fresh medium and incubate for another 2 hours. • 3. Add 12 μL (4×) compounds into the cell plate by HAMILTON. Final DMSO concentration is 0.5%. Incubate for 2 hours. • 4. Aspirate 38 μL by HAMILTON, 10 μL rest per well. • 5. Add 10 μL 2× lysis buffer using HAMILTON; total volume in wells is 20 μL. Allow cells to shake for 30 min. Cover plate by plastic foil and store plate at −80° C. up to analysis. • 6. Thaw cell lysate at RT and transfer 10 ul lysate to assay plate (Optiplate-384). • 7. Add 5 ul acceptor beads into assay plate and incubation for 2 hours • 8. Add 5 ul donor beads and incubation for 2 hours • 9. Count the plate by EnSpire Multimode Plate Reader
Background: In Alpha technology, singlet oxygen from a donor bead excites a nearby acceptor bead.

The subject of experiment [2] is pAKT (p-Akt 1/2/3 (Ser473)) in MCF-7 cells. In words: AlphaLISA Ultra pAKT assay. It is filed as cell-based. The settings on record: Homo sapiens, MCF7, 2 hours compound incubation. The protocol:
Example 156: AlphaLISA Ultra pAKT Assay
as §1, with “1.” for “1. Seed”, “for 20-24” for “for 20˜24”, “hour. 16,000-20,000” for “hour. 12,000˜16,000”, “38 j L” for “38 μL”

As usually defined, the IC50 is the concentration that inhibits the measured activity by half. A high value points to weaker potency. As to `CNC(=O)C1CN(C(=O)c2cc(N(C)C3CCN(c4ccccc4C#N)CC3)c(C)cc2C)CCN1c1ccccc1` (stereo not shown) [I-58], the IC50 in experiment [1] is 0.01 to 1 µM; in experiment [2] it was > 10 µM.
For `Cc1cc(C)c(N(C)C2CCN(c3ccccc3C#N)CC2)cc1C(=O)N1CCN(c2ccccc2S(N)(=O)=O)CC1` [I-59] the same measures were 3 to 5 µM and > 10 µM.
For `Cc1cc(C)c(C(=O)N2CCN(c3ccccc3S(C)(=N)=O)CC2)cc1NC1CCN(c2ccccc2C#N)CC1` (stereo not shown) [I-62, 2-(4-{[5-(4-{2-[imino(methyl)oxo-λ^6-sulfanyl]phenyl}piperazine-1-carbonyl)-2,4-dimethylphenyl]amino}piperidin-1-yl)benzonitrile] the same measures were 0.01 to 1 µM and > 10 µM.
In the same order, the values of `Cc1cc(C)c(C(=O)N2CCN(c3ccccc3)C(CO)C2)cc1NC1CCN(c2ccccc2C#N)CC1` (stereo not shown) [I-63, 2-[4-({5-[3-(Hydroxymethyl)-4-phenylpiperazine-1-carbonyl]-2,4-dimethylphenyl}amino)piperidin-1-yl]benzonitrile] are 0.01 to 1 µM and > 10 µM.
For `CNC(=O)c1ccccc1N1CCN(C(=O)c2cc(NC3CCN(c4ccccc4C#N)CC3)c(C)cc2C)CC1` [I-64], the IC50 is 0.01 to 1 µM in experiment [1] and > 10 µM in experiment [2].
On to `CNC(=O)c1cc(F)ccc1N1CCN(C(=O)c2cc(NC3CCN(c4ccccc4C#N)CC3)c(C)cc2C)CC1` [I-65], for which the IC50 in experiment [1] was 0.01 to 1 µM; in experiment [2], > 10 µM.
In the same order, the values of `Cc1cc(C)c(C(=O)N2CCN(c3ccccc3S(N)(=O)=O)CC2)nc1NC1CCN(c2ccccc2C#N)CC1` [I-66, 2-(4-(6-(1-(2-Cyanophenyl)piperidin-4-ylamino)-3,5-dimethylpicolinoyl)piperazin-1-yl)benzenesulfonamide] are 0.01 to 1 µM and > 10 µM.
For `Cc1cc(C)c(C(=O)N2CCN(c3ccccc3S(N)(=O)=O)CC2)cc1NC1CCN(c2ccccc2C#N)CC1` [I-67] the same measures were 0.01 to 1 µM and > 10 µM.
For `Cc1cc(C)c(N(C)C2CCN(c3ccccc3C#N)CC2)cc1C(=O)N1CCN(c2ccccc2C#N)CC1` [I-68, 2-[4-({5-[4-(2-cyanophenyl)piperazine-1-carbonyl]-2,4-dimethylphenyl}(methyl)amino)piperidin-1-yl]benzonitrile] the same measures were 0.01 to 1 µM and > 10 µM.
Regarding `Cc1cc(C)c(C(=O)N2CCN(c3cc(F)c(F)cc3C#N)C[C@@H]2C)cc1NC1CCN(c2ccccc2C#N)CC1` [I-69, 2-[(3S)-4-(5-{[1-(2-Cyanophenyl)piperidin-4-yl]amino}-2,4-dimethylbenzoyl)-3-methylpiperazin-1-yl]-4,5-difluorobenzonitrile], the IC50 was 0.01 to 1 µM in experiment [1] and > 10 µM in experiment [2].
`Cc1cc(C)c(C(=O)N2CCN(c3cccnn3)CC2)cc1NC1CCN(c2ccccc2C#N)CC1` [I-70, 2-[4-({2,4-Dimethyl-5-[4-(pyridazin-3-yl)piperazine-1-carbonyl]phenyl}amino)piperidin-1-yl]benzonitrile]: the IC50 in experiment [1] was 3 to 5 µM; in experiment [2], > 10 µM.
For `Cc1cc(C)c(C(=O)N2CCN(c3ccccc3C#N)CC2)cc1NC1CCN(c2ccccc2C#N)CC1` [I-71, 2-[4-({5-[4-(2-Cyanophenyl)piperazine-1-carbonyl]-2,4-dimethylphenyl}amino)piperidin-1-yl]benzonitrile] the same measures were 0.01 to 1 µM and > 10 µM.
For `Cc1cc(C)c(C(=O)N2CCN(c3ccc(F)cn3)C(=O)C2)cc1NC1CCN(c2ccccc2C#N)CC1` [I-72, 2-[4-({5-[4-(5-Fluoropyridin-2-yl)-3-oxopiperazine-1-carbonyl]-2,4-dimethylphenyl}amino)piperidin-1-yl]benzonitrile] the same measures were 3 to 5 µM and > 10 µM.
`Cc1cc(C)c(C(=O)N2CCN(c3ccccc3)C(CO)C2)cc1NC1CCN(c2ccccc2)C1` (stereo not shown) [I-73, (4-{2,4-Dimethyl-5-[(1-phenylpyrrolidin-3-yl)amino]benzoyl}-1-phenylpiperazin-2-yl)methanol]: the figures for the IC50 in experiment [1] and in experiment [2] were 3 to 5 µM and > 10 µM, respectively.
For `Cc1cc(C)c(C(=O)N2CCN(c3ccccc3F)C(CO)C2)cc1NC1CCN(c2ccccc2C#N)CC1` (stereo not shown) [I-74, 2-[4-({5-[4-(2-Fluorophenyl)-3-(hydroxymethyl)piperazine-1-carbonyl]-2,4-dimethylphenyl}amino)piperidin-1-yl]benzonitrile] the same measures were 0.01 to 1 µM and > 10 µM.
In the same order, the values of `Cc1cc(C)c(C(=O)N2CCN(c3ccc(F)cc3)C(CO)C2)cc1NC1CCN(c2ccccc2C#N)CC1` (stereo not shown) [I-76, 2-[4-({5-[4-(4-fluorophenyl)-3-(hydroxymethyl)piperazine-1-carbonyl]-2,4-dimethylphenyl}amino)piperidin-1-yl]benzonitrile] are 0.01 to 1 µM and > 10 µM.
For `Cc1cc(C)c(C(=O)N2CCN(c3ccccc3C#N)CC2)cc1NC1CCCN(c2ccc(C#N)cc2)CC1` (stereo not shown) [I-80, 2-[4-(5-{[1-(4-cyanophenyl)azepan-4-yl]amino}-2,4-dimethylbenzoyl)piperazin-1-yl]benzonitrile] the same measures were 1 to 3 µM and > 10 µM.
With `Cc1cc(C)c(C(=O)N2CCN(c3ccccc3C#N)CC2)cc1NC1CCCN(c2cccc(C#N)c2)CC1` (stereo not shown) [I-81, 2-[4-(5-{[1-(3-cyanophenyl)azepan-4-yl]amino}-2,4-dimethylbenzoyl)piperazin-1-yl]benzonitrile], the IC50 in experiment [1] and in experiment [2] was > 10 µM each time.
With `Cc1cc(C#N)c(NC2CCN(c3ccccc3C#N)CC2)cc1C(=O)N1CCN(c2ccccc2S(N)(=O)=O)CC1` [I-86, 2-(4-(4-Cyano-5-(1-(2-cyanophenyl)piperidin-4-ylamino)-2-methylbenzoyl)piperazin-1-yl)benzenesulfonamide], the IC50 in experiment [1] and in experiment [2] was > 10 µM each time.
As to `Cc1ccc(NC2CCN(c3ccccc3C#N)CC2)c(C)c1C(=O)N1CCN(c2cccc(F)c2S(N)(=O)=O)CC1` [I-87, 2-(4-(3-(1-(2-cyanophenyl)piperidin-4-ylamino)-2,6-dimethylbenzoyl)piperazin-1-yl)-6-fluorobenzenesulfonamide], the concentration for half-maximal inhibition (IC50) was 1 to 3 µM in experiment [1] and > 10 µM in experiment [2].
Take `Cc1cc(F)c(NC2CCN(c3ccccc3C#N)CC2)cc1C(=O)N1CCN(c2ccccc2S(N)(=O)=O)CC1` [I-90, 2-(4-(5-(1-(2-cyanophenyl)piperidin-4-ylamino)-4-fluoro-2-methylbenzoyl)piperazin-1-y)benzenesulfonamide]: the IC50 is 3 to 5 µM in experiment [1] and > 10 µM in experiment [2].
In the same order, the values of `Cc1cc(C)c(C(=O)N2CCN(c3cccc(F)c3S(N)(=O)=O)CC2)cc1NC1CCN(c2c(F)cccc2C#N)CC1` [I-92, 2-(4-(5-(1-(2-Cyano-6-fluorophenyl)piperidin-4-ylamino)-2,4-dimethylbenzoyl)piperazin-1-yl)-6-fluorobenzenesulfonamide] are 1 to 3 µM and > 10 µM.
In the same order, the values of `Cc1cc(C)c(C(=O)N2CCN(c3ncccc3[S@](C)(=N)=O)CC2)cc1NC1CCN(c2ccccc2C#N)CC1` [I-94, (R)-2-(4-(2,4-Dimethyl-5-(4-(3-(S-methylsulfonimidoyl)pyridin-2-yl)piperazine-1-carbonyl)phenylamino)piperidin-1-yl)benzonitrile] are 1 to 3 µM and > 10 µM.
In the same order, the values of `Cc1cc(C)c(C(=O)N2CCN(C(C)C)[C@H](CO)C2)cc1NC1CCN(c2ccccc2C#N)CC1` [I-95, (S)-2-(4-(5-(3-(Hydroxymethyl)-4-isopropylpiperazine-1-carbonyl)-2,4-dimethylphenylamino)piperidin-1-yl)benzonitrile] are > 10 µM and > 10 µM.
With `Cc1cc(C)c(C(=O)N2CCN(CC(F)(F)F)[C@@H](CO)C2)cc1NC1CCN(c2ccccc2C#N)CC1` [I-96, (R)-2-(4-(5-(3-(Hydroxymethyl)-4-(2,2,2-trifluoroethyl)piperazine-1-carbonyl)-2,4-dimethylphenylamino)piperidin-1-yl)benzonitrile], the IC50 in experiment [1] was 3 to 5 µM; in experiment [2], > 10 µM.
For `Cc1cc(C)c(C(=O)NC2CCN(c3ccccc3C#N)CC2)cc1NC1CCN(c2ccccc2C#N)CC1` [I-97, N-(1-(2-Cyanophenyl)piperidin-4-yl)-5-(1-(2-cyanophenyl)piperidin-4-ylamino)-2,4-dimethylbenzamide] the same measures were > 10 µM and > 10 µM.
